Values quoted from earlier work in patent US11602517B2, “Pharmaceutical composition, comprising polmacoxib and pregabalin, for treatment of pain” (CRYSTALGENOMICS, INC., priority 2018, dated 2023).

Columns and labels:
[1] = white or light yellow crystalline powder

## CC(C)C[C@H](CN)CC(=O)O [Pregabalin, (S)-(+)-3-(aminomethyl)-5-methyl-hexanoic acid]
Absorbed from the upper part of the small intestine
  average absorption time: 6 h
Absorption in the body
  time to reach maximum blood concentration: ≤ 1.3 h
In vivo
  bioavailability: about 90%
[1]
  solubility in water: soluble in water
